{"source": "patent US7144864B2", "about": "“Carboxypeptidase R inhibiting peptide” (Hidechika Okada, priority 2002, dated 2006)", "key": {"[1]": {"target": "T1, purified CPR (carboxypeptidase R) (Homo sapiens, UniProt Q96IY4)", "T1 construct": "from tissue", "T1 sequence (Q96IY4 115-423)": "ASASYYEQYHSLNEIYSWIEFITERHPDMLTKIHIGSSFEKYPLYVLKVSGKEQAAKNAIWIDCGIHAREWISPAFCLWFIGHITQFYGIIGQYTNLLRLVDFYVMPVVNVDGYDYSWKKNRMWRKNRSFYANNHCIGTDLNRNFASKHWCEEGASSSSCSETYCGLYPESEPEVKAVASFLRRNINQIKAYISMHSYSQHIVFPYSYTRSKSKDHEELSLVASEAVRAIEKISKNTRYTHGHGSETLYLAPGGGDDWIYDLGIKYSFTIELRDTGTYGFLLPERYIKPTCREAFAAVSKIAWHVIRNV", "test": "CPR kinetics: inhibition of CPR-catalysed hydrolysis of hippuryl-L-arginine", "type": "biochemical", "experimental": "(§1) ProCPR was purified to homogeneity as previously described. […] CPN was purified to homogeneity as previously described. The enzyme gave three bands on SDS-PAGE at 83 kDa, 53 kDa and 50 kDa corresponding to the two large identical glycosylated subunits and the two smaller active subunits, respectively.\nThe activity of the CPR inhibitors was determined against purified CPR using hippuryl-L-arginine as the substrate. The peptides PCI-2K-R, CPI-2KR, PCI (500, 250/125/62.5, 50 mg/ml, respectively) or Tris-HCl buffer (50 mM; pH 7.5) were added to active CPR (40–320 mg/ml) at a 1:7 ratio. After thorough mixing, […] was incubated with various concentrations of hippuryl-L-arginine (1.2–6.0 mM), for 15 minutes at 37° C. The reaction was stopped with the addition of sodium phosphate buffer ([…]; 0.25 M), immediately followed by 3% cyanuric chloride in 1,4-dioxane ([…]). After mixing well, the generation of hippuric acid was determined by measuring the OD at 405 nm on a SpectraMAX 250 Microplate Spectrophotometer (Molecular Device Corporation, Sunnyvale, Calif., USA). Hippuric acid (0–2.0 mM) in Tris buffer was used as the standard.\nA kinetics analysis of the CPR-catalysed hydrolysis of hippuryl-L-arginine in the absence and presence of inhibitory molecules was performed. The Lineweaver-Burk reciprocal plot, based on rearrangement of the Henri-Michaelis-Menten equation into a linear form, was applied:\n[formula] where v (in mM sec^−1) is the instantaneous or initial velocity, [S] (mM) is the substrate concentration, Km(mM)is equivalent to the substrate concentration that yields half-maximal velocity and Vmax(mM sec^−1) is the maximum velocity. For competitive inhibition, where the inhibitor competes with the substrate for binding to the enzyme, the following mechanism was assumed: where\nIn competitive inhibition, the apparent Vmax is not affected with increasing inhibitor concentrations because once substrate binds the reaction proceeds normally (i.e. Vmax depends only on maximum ES complex concentration, which only depends on the total amount of enzyme present) However, the apparent Km increases (i.e. a higher substrate concentration is required for a given velocity) by a factor of [1+([I]/Ki)].\n[formula] where Kmapp is the apparent Km for a given inhibitor concentration.\nThe Dixon plot (1/v versus [I] in the presence of different concentrations of substrate) provides a more diagnostic way of identifying the type of inhibition and determining the Ki: […]"}, "[2]": {"system": "TM-induced retardation of t-PA-induced fibrinolysis", "test": "TM-induced retardation of t-PA-induced fibrinolysis in human plasma (clot lysis)", "type": "biochemical", "experimental": "Human plasma was obtained by centrifugation of citrated blood at 3000 g for 15 minutes at room temperature. In a 96-well microtitre plate, […] of a thrombin/calcium mix [50 ml calcium (CaCl Q; 1 M), […] of thrombin (T; 500 U/ml) and 430 ml of Tris buffer (50 mM, pH 7.5)] was added followed by 10 ml of thrombomodulin (TM; final concentration 8 nM). Subsequently, 10 ml of peptide solution in Tris buffer (16 mg/ml […]), Tris buffer or PCI (50 mg/ml) were added. After the addition of 50 ml of a t-PA/plasma mix [[…] of t-PA (130 mg/ml) mixed with 1 ml of pre-warmed citrated plasma (37° C. for 5 minutes) ] the plate was immediately read at 420 nm every 5 minutes for 2 hours on a SpectraMAX 250 Microplate Spectrophotometer (Molecular Device Corporation, Sunnyvale, Calif., USA). Lysis time was defined as the time required for the absorbance to reach half the difference between the plateau reached after clotting and baseline achieved at clot lysis."}, "CPR": {"target": "T2, CPR (Homo sapiens, UniProt Q96IY4)", "T2 sequence (Q96IY4 115-423)": "T1 sequence (Q96IY4 115-423)", "conditions": "cited from earlier work"}, "[3]": {"target": "T3, purified CPN (carboxypeptidase N) (Homo sapiens, UniProt P15169)", "T3 construct": "corresponding to the two large identical glycosylated subunits and the two smaller active subunits; from tissue", "T3 sequence (P15169 21-458)": "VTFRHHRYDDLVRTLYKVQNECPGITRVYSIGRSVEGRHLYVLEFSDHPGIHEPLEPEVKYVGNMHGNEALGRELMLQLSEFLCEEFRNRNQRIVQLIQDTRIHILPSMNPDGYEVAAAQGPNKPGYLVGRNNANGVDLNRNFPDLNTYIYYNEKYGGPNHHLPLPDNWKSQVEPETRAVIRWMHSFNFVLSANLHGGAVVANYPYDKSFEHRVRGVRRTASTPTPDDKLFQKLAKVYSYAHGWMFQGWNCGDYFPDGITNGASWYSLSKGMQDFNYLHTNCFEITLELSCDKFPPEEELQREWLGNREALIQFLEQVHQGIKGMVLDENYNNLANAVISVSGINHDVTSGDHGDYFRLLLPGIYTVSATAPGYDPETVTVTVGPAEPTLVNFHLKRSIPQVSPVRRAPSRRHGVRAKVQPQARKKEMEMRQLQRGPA", "T3 sequence (P22792 22-545 partner)": "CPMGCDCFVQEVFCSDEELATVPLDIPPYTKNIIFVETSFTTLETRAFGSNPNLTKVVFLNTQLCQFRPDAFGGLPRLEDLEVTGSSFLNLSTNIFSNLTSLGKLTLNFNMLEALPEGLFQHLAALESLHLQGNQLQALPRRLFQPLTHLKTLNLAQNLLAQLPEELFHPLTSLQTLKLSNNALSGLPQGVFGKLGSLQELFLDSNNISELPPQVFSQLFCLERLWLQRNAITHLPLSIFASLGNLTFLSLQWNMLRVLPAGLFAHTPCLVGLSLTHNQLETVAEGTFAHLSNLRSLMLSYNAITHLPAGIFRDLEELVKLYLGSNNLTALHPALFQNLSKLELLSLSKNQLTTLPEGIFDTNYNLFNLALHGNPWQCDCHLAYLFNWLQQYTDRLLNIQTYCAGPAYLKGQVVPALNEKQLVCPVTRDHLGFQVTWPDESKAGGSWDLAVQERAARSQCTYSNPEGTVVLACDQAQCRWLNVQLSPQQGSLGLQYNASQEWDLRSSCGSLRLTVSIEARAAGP", "test": "CPN kinetics: effect on purified CPN with hippuryl-L-arginine as substrate", "type": "biochemical", "experimental": "as §1\nThe effect of CPI-2KR on purified CPN was determined using hippuryl-L-arginine as the substrate. Guanidinoethylmercaptosuccinic acid (GEMSA) was used as a positive control. CPI-2KR ([…]), GEMSA ([…]) or Tris-HCl buffer (50 mM; pH 7.5) were added to CPN (10 mg/ml) at a 1:7 ratio. Identical conditions to those used for the CPR kinetics experiments were subsequently applied."}}, "note": "Entries after “also recorded” stand apart in the source; their conditions may differ. Bridge positions count the residues as written; N and C are the ends. Ends that are not written are not given here. Peptide text beside a SMILES is read from it.", "data": [{"compound": "PCI-R: PCI-derived peptide containing the arginine residue, SEQ ID NO: 2 (QACWNSART)", "values": [{"measurement": "inhibitory activity against CPR (in words)", "setting": "[1]", "value": "no activity was observed"}]}, {"compound": "PCI-2K: PCI-derived peptide containing the two lysine residues, SEQ ID NO: 1 (NKPCKTHDD)", "values": [{"measurement": "inhibitory activity against CPR (in words)", "setting": "[1]", "value": "no activity was observed"}]}, {"compound": "tetrapeptide C-terminal fragment of PCI: tetrapeptide C-terminal fragment of PCI (PYVG)", "values": [{"measurement": "inhibitory activity against CPR (in words)", "setting": "[1]", "value": "does not inhibit"}]}, {"compound": "CPI-2KR-cyclic: cyclised CPI-2KR via N- and C-terminal cysteine residues, SEQ ID NO: 3 (CKPAKNARC; disulfide 1-9)", "values": [{"measurement": "effect on TM-induced retardation of t-PA-induced fibrinolysis (in words)", "setting": "[2]", "value": "dramatic loss of inhibitory activity"}]}, {"compound": "PCI: small 39-residue protein (MW 4295 Da), potato carboxypeptidase inhibitor, SEQ ID NO: 4 (QQHADPICNKPCKTHDDCSGAWFCQACWNSARTCGPYVG) [reference compound]", "values": [{"measurement": "effect on TM-induced retardation of t-PA-induced fibrinolysis (in words)", "setting": "[2]", "value": "permitting fibrinolysis to proceed"}, {"measurement": "Ki", "setting": "CPR; read-out: Ki against CPR (literature)", "value": 400, "unit": "pM"}, {"measurement": "Km", "setting": "[1]; hippuryl-L-arginine substrate, Lineweaver-Burke, read-out: Km of CPR in the presence of the inhibitor", "value": 12.3, "unit": "mM"}]}, {"compound": "N=C(N)NCCSC(CC(=O)O)C(=O)O", "note": "(centres unmarked) [GEMSA, guanidinoethylmercaptosuccinic acid]", "values": [{"measurement": "inhibitory activity against CPN", "setting": "[3]; at 425 nM", "value": "inhibited"}, {"measurement": "inhibitory activity against CPN", "setting": "[3]; at 2.1 mM", "value": "strong inhibitory activity"}, {"measurement": "concentration at which CPR is inhibited (literature [40])", "setting": "CPR", "value": 18, "unit": "mM"}]}, {"compound": "C[C@H](NC(=O)[C@H](CC(N)=O)NC(=O)[C@H](CCCCN)NC(=O)[C@H](C)NC(=O)[C@@H]1CCCN1C(=O)[C@H](CCCCN)NC(=O)[C@@H](N)CS)C(=O)N[C@@H](CCCNC(=N)N)C(=O)N[C@@H](CS)C(N)=O", "note": "[CPI-2KR] (H-CKPAKNARC-NH2; N-terminus assumed)", "values": [{"measurement": "effect on TM-induced retardation of t-PA-induced fibrinolysis (in words)", "setting": "[2]", "value": "synergistically accelerated fibrinolysis; also recorded: dose-responsive inhibition"}, {"measurement": "effective inhibitory concentration, fold higher than that of PCI", "setting": "[2]", "value": 10, "unit": "fold"}, {"measurement": "effective inhibitory concentration on TM-induced retardation of t-PA-induced fibrinolysis", "setting": "[2]; TM 8 nM", "value": 126, "unit": "nM"}, {"measurement": "inhibitory activity against CPN", "setting": "[3]; at 506 nM", "value": "did not exhibit any inhibitory activity"}, {"measurement": "Ki, fold higher than that of PCI", "setting": "[1]", "value": 6, "unit": "fold"}, {"measurement": "binding affinity for CPR, fold stronger than PCI-2K-R", "setting": "[1]", "value": "~46", "unit": "fold"}, {"measurement": "inhibitory activity against CPR (in words)", "setting": "[1]", "value": "competitive inhibitor"}]}]}
